According to US20170058264A1, “FORMATION OF MULTICELLULAR TUMOROIDS AND USES THEREOF” (UNIVERSITY OF SOUTH FLORIDA, priority 2014, published 2017):

How the values were obtained:
Format in all cases: cell-based
BT474 tumoroids [1] = assay: Lapatinib response of BT474 tumoroids in monoculture or co-culture, cell viability by PrestoBlue assay; conditions: Homo sapiens, BT-474, 72 h, about 72 hours
Description: (§1) On day 2 after culturing, cells were treated with the indicated concentrations (μM) of Lapatinib for about 72 hours. Cell viability was measured by PrestoBlue® assay.
(§2) The sensitivity of tumoroids derived from monoculture or co-culture of BT474 and HCC1569 to Lapatinib was examined. Lapatinib is a dual small molecule tyrosine kinase inhibitor targeting EGFR and HER2. […] Similar results were obtained when established tumoroids were treated with Lapatinib.

HCC1569 tumoroids = assay: Lapatinib response of HCC1569 tumoroids in monoculture or co-culture, cell viability by PrestoBlue assay; conditions: HCC1569 cultured in the presence of ECs and CAFs vs monoculture
Description: as §1, §2

[2] = target: BT474 co-cultured tumoroids; assay: Ki-67 expression by immunohistochemistry and tumoroid formation in Lapatinib treated BT474 tumoroids; conditions: 72 hours
Description: Ki-67 can be used as a surrogate marker of clinical efficacy in cancer trials. Expression of Ki-67. Monoculture and Co-culture tumoroids were treated with increasing concentrations of Lapatinib (0-10 μM). Tumoroids were fixed and immunostained for […].

BT474 tumoroids [3] = assay: VEGF, IL-6 and TGF-β1 in day 5 culture supernatants of BT474 tumoroids by ELISA; conditions: co-cultured tumoroids; Lapatinib about 2.5 μM-5 μM; day 5 supernatants
Description: BT474 tumoroids were monocultured or co-cultured in the presence or absence of Lapatinib (2.5-10 μM) and the levels of VEGF, IL-6, and TGF-β1 in the day 5 culture supernatants were determined by ELISA. * p<0.05.
To identify and evaluate the biomarkers of clinical efficacy, both monoculture and co-culture tumoroids were treated with increasing concentrations of Lapatinib (about 0 to about 10 μM). Five days after culture, the supernatants of the culture were tested for levels of VEGF, IL-6, and TGF-β. […] BT474 tumoroids were mono-cultured or co-cultured in the presence or absence of Lapatinib (2.5-10 μM) and the levels of VEGF, IL-6, and TGF-β1 in the day 5 culture supernatants were determined by ELISA. * p<0.05.

[4] = tested on: BT474 tumoroids (SCTs and MCTs); assay: Quantibody Array (multiplexed sandwich ELISA) of factors in day 5 culture supernatants of BT474 SCTs and MCTs
Description: BT474 tumoroids (SCTs, blue bars and MCTs, red bars) were cultured in the presence or absence of Lapatinib (0.5-12.5 μM), as in FIGS. 9A-9B, and the levels of IL-6, IL-8, MCP-1 in the day 5 culture supernatants were determined by Sandwich ELISA (FIGS. 20-21). * p<0.05.
BT474 tumoroids (SCTs, blue bars and MCTs, red bars) were cultured in the presence or absence of Lapatinib (0.5-12.5 μM), as in FIGS. 9A-9B, and the levels of PDGF-BB, DKK-1, OPG in the day 5 culture supernatants were determined by Sandwich ELISA (FIGS. 20-21). * p<0.05.
BT474 tumoroids (SCTs, blue bars and MCTs, red bars) were cultured in the presence or absence of Lapatinib (0.5-12.5 μM), as in FIGS. 9A-9B, and the levels of MMP-3 in the day 5 culture supernatants were determined by Sandwich ELISA (FIGS. 20-21). * p<0.05.
Additionally, to characterize factors and molecules released in SCTs and MCTs culture, a human Quantibody Array (RayBiotech Inc.), which utilizes a multiplexed sandwich ELISA assay and enables detection of multiple proteins/factors simultaneously, was used. […] This list includes adhesion molecules (E-selectin, ICAM-1, P-Cadherin, VE-cadherin), \growth factors (aFGF, activin A, […] (AR), bFGF, bone morphogenic protein (BMP)-2, BMP-4, BMP-6, BMP-7, BMP-9, dickkopf-1 (DKK-1), IGF-1, osteoprotegerin (OPG), osteopontin (OPN), PDGF-BB, TGFβ1, TGFβ2, TGFβ3), chemokines (monocyte chemotactic protein 1 (MCP-1)), macrophage inflammatory protein (MIP)-1α, VCAM-1), cytokines (IL-1α, IL-1β, IL-6, IL-8, IL-11, IL-17, M-CSF), receptor activator of NFkB (RANK), osteoactivin, SDF-1α, TNF related activation induced cytokine (TRANCE)) and matrix metalloproteinases (MMPs), such as MMP-2, -3, -9, -13.
To determine whether any of these factors are expressed in SCTs and MCTs, we incubated QAH-BMA-1000 array with a pool of culture supernatants of BT474-SCTs and MCTs in quadruplets. Experiments were conducted using manufacturer's protocol. An appropriate positive control was used to normalize the signal intensity. […] These include, growth factors, such as PDGF-BB, OPG and DKK-1, chemokine such as MCP-1, IL-6 and IL-8, and protease MMP-3 (see e.g. FIGS. 23A-25.)
Lapatinib treated cultures were examined for factors that are found differentially expressed in MCTs, compared to SCTs.

BT-474 SCTs = assay: Lapatinib response of BT-474 SCTs cultured on Matrigel or FiSS, Presto Blue cell viability; conditions: 3 d old SCTs; examined after 72 hrs
Description: Cells (3×10^3) were cultured on a layer of Matrigel coated plate in the presence of growth medium supplemented with 10% Matrigel. Three days after culture, cells were treated with indicated concentrations of Lapatinib and examined after 72 hrs. Spheroids were stained with calcein AM and examined by fluorescent microscope.
To benchmark FiSS-tumoroids against Matrigel-based 3D-culture for prediction of clinical efficacy, 3 d old BT-474 SCTs (cultured on Matrigel or FiSS) were treated with Lapatinib and examined tumoroid formation (FIGS. 26A-26D) and cell viability (FIGS. 27A-27B). Although Matrigel induced numerous smaller size tumoroids compared to FiSS tumoroids, their response to Lapatinib was similar as shown in FIGS. 27A-27B.

BT474 tumoroids [5] = assay: High-content analysis (Operetta) of Ki-67 immunostaining in BT474 tumoroids; conditions: different concentrations of Lapatinib; about 72 hrs
Description: Quantification of immunostaining was completed using Operetta.
To optimize quantification of high content imaging for BT474 tumoroids were incubated for 72 h and then imaged on the Operetta HCI System with a 20× objective. Single plane z-stacked images of BT474 tumoroids on scaffolds were stained with DAPI and images were acquired using the Operetta high content imaging system from Perkin Elmer. Representative fields were selected at 20× magnification and z-stacks of these fields were acquired with an interval of 2 um between each z-plane. Z-stacks were analyzed using the image processing software ImageJ (NIH). […] Using HCA we have quantified changes in Ki-67 expression in BT474 tumoroids treated with different concentrations of Lapatinib.

[6] = MCTs, Lapatinib 0.5-12.5 μM, dose dependent

IC50 (BT474 tumoroids [1]; BT474 cells cultured on 2D or FiSS (monoculture)): < 2.5 µM
IC50 (BT474 tumoroids [1]; MCTs, in the presence of ECs and CAFs): > 10 µM
Ki-67 staining ([2]; Lapatinib 2.5 μM): completely abrogated
tumoroid formation ([2]; Lapatinib 2.5 mM as printed): inhibited tumoroid formation
Ki-67 expression (relative intensity, HCA) (BT474 tumoroids [5]): dose-dependent Ki-67 expression
SMILES: CS(=O)(=O)CCNCc1ccc(-c2ccc3ncnc(Nc4ccc(OCc5cccc(F)c5)c(Cl)c4)c3c2)o1 [Lapatinib]
resistance to Lapatinib (HCC1569 tumoroids): increase in resistance
secretion of IL-6 (BT474 tumoroids [3]): significantly decreased
secretion of TGF-β (BT474 tumoroids [3]): significantly decreased
secretion of VEGF (BT474 tumoroids [3]): significantly decreased
reduction of MCP-1 expression ([4]; MCTs, 12.5 uM Lapatinib): ≤ 50%
DKK-1 expression ([4]; MCTs, Lapatinib 0.5-12.5 μM): reduced significantly
MMP-3 expression ([4]; MCTs, Lapatinib 0.5-12.5 μM): reduced only marginally
IL-6 in culture supernatants [4, 6]: reduced to basal level
IL-8 in culture supernatants [4, 6]: reduced to basal level
PDGF-BB expression ([4]; SCTs and MCTs, Lapatinib 0.5-12.5 μM): did not alter
MCP-1 expression ([4]; SCTs, Lapatinib 0.5-12.5 μM): abolished MCP-1 expression completely
response to Lapatinib (cell viability), Matrigel vs FiSS tumoroids (BT-474 SCTs): similar
